From patent publication US20100069244A1, “Pyridine Compounds for Combating Pests” (priority 2006, published 2010)

Test system: Colorado Potato Beetle (Leptinotarsa decemlineata)
Assay: Activity against Colorado potato beetle, potato leaf dip
Type: in vivo
Settings: foliar, 120 h, read-out: mortality compared to 0% mortality of untreated controls
Description: 6. Activity Against Colorado Potato Beetle (Leptinotarsa decemlineata)
Potato plants were utilized for bioassays. Excised plant leaves were dipped into 1:1 acetone/water dilutions of the active compounds. After the leaves had dried, they were individually placed onto water-moistened filter paper on the bottoms of Petri dishes. Each dish was infested with 5 to 7 larvae and covered with a lid. Each treatment dilution was replicated 4 times. Test dishes were held at approximately 27° C. and 60% humidity. Numbers of live and morbid larvae were assessed in each dish at 5 days after treatment application, and percent mortality was calculated.

For `CC(C)N1CC[C@H]1COc1cncc(Cl)c1` [Ia-155, 3-Chloro-5-((S)-1-isopropyl-azetidin-2-ylmethoxy)-pyridine], the mortality at 300 ppm was over 50%.
